Molecules are shown by their SMILES. Where “and” joins values, the source holds several entries; their conditions need not be identical. Identical values can stand only once.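 Assay format: 96-well plates, 48-hour exposure. The concentration for 50% growth inhibition is given as GI50. TGI is the concentration that stops growth completely.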

The values below come from PubChem BioAssay (NCI).

Holding throughout (test): NCI anticancer screen, dose series, 48 h
The subject of assay [1] is MDA-MB-435.
The subject of assay [2] is K-562 leukemia.
Assay [3] deals with UO-31 renal.
The test system of assay [4] is IGROV1 ovarian.
Assay [5] concerns U251 CNS.
The subject of assay [6] is SK-MEL-2 melanoma.
The test system of assay [7] is NCI-H23 lung.
In assay [8] the test system is HL-60(TB) leukemia.
Assay [9] deals with UACC-257 melanoma.
Assay [10] deals with CAKI-1 renal.

Consider `Fc1cc(-c2nnc3n2N=C(c2ccc(Cl)cc2)CS3)c(Cl)cc1Cl`, for which the GI50 was 4.97 µM in assay [1]; 1.57 µM in assay [2]; 2.99 µM in [3]; 4.25 µM in [4]; 11.4 µM in assay [5]; 27 µM in assay [6]. In addition, the GI50 is 6.67 µM in [7], 0.96 µM in assay [8], 14.7 µM in assay [9] and 4.61 µM in assay [10]. Besides, the TGI in assay [1] was 18.4 µM; in assay [2] it was more than 100 µM; in [3], more than 20.5 µM; in [4] it was more than 37.6 µM; in assay [5], 28.4 µM; in assay [6], more than 57.8 µM. The TGI in [7] was 20.8 µM; in assay [8] it was more than 100 µM; in assay [9], 28.8 µM; in assay [10], 17.4 µM.
Take `CCOc1ccc(NC2=CC(=O)C(=O)c3ccccc32)cc1`: the TGI in assay [1] was found to be 3.19 µM; in assay [2] it was 26.9 µM; in assay [3] it was 13.5 µM; in assay [4] it was 16.9 µM; in assay [5], 13.1 µM; in assay [6], 16.2 µM. Further, the TGI turned out to be 3.93 µM in assay [7], 4.13 µM in assay [8], 3.04 µM in assay [9] and 20.9 µM in [10].
`COc1cc(-c2nn(-c3cccc(NC(=O)c4ccccc4)c3)cc2-c2ccncc2)ccc1Cl`: the GI50 in assay [1] was 0.184 µM; in [2], 0.39 µM; in assay [3] it was 0.4 µM; in assay [4], 0.572 µM; in assay [5], 0.592 µM; in assay [6] it was 0.326 µM. Further, the GI50 in assay [7] is 1.12 µM; in assay [8], 0.376 µM; in [9], 0.63 µM; in assay [10], 0.836 µM. For the same compound, the TGI in assay [1] was 0.508 µM; in assay [2], more than 100 µM; in assay [4], more than 100 µM; in assay [5] it was 24.4 µM; in assay [6], 2.1 µM; in assay [7] it was more than 100 µM. The TGI was more than 100 µM in [9] and more than 40.5 µM in assay [10].
For `O=C1c2ccccc2C(=O)c2c(/C=C\N3CCCCC3)ccnc21`, the TGI in [1] stood at 0.289 µM; in assay [2], 36 µM; in assay [3] it was 23.4 µM; in assay [4], 36.8 µM; in [5], 14.5 µM; in assay [6], 14 µM. Besides, the TGI in assay [7] worked out at 1.31 µM; in [8], 27.8 µM; in assay [9] it was 3.22 µM; in assay [10], 39.5 µM.
Regarding `COc1ccc(Cn2c(Br)c3c(c2Br)-c2nc(N)sc2CC3)cc1`, the GI50 in assay [1] is 0.407 µM; in assay [2] it was 2.43 µM; in assay [3], 1.59 µM; in assay [4] it was 11.6 µM; in assay [5] it was 5.15 µM; in assay [6] it was 5.56 µM. The GI50 is 10.6 µM in [7], 2.75 µM in assay [8], 8.48 µM in assay [9] and 2.9 µM in assay [10]. Further, the TGI was found to be 10.4 µM in [1]; 57.9 µM in [2]; 3.97 µM in assay [3]; 39.2 µM in assay [4]; 19 µM in assay [5]; 19.9 µM in assay [6]. Besides, the TGI in assay [7] was found to be 38.6 µM; in [8], 22.6 µM; in [9] it was 22.3 µM; in [10], 10.4 µM.
`C=CC(=O)Nc1cc(Nc2nccc(-c3cn(C)c4ccccc34)n2)c(OC)cc1N(C)CCN(C)C`: the GI50 in [1] was 1.62 µM and 1.64 µM; in assay [2], 1.73 µM and 0.349 µM; in [3], 0.604 µM and 0.444 µM; in assay [4], 1.14 µM and 0.407 µM; in assay [5], 1.63 µM and 1.71 µM; in [6], 2.08 µM and 1.94 µM. Also, the GI50 in assay [7] was 4.76 µM and 3.39 µM; in [8] it was 1.47 µM and 1.71 µM; in assay [9] it was 1.71 µM and 1.8 µM; in assay [10], 0.343 µM and 0.916 µM. Also, the TGI in [1] was 3.03 µM and 3.14 µM; in assay [2], 5.2 µM and 1.73 µM; in assay [3] it was 4.09 µM and 2.08 µM; in assay [4], 7.58 µM and 2.68 µM; in [5], 3.26 µM and 3.35 µM; in assay [6] it was 4.04 µM and 3.87 µM. The TGI was 17.9 µM and > 10 µM in assay [7]; 3.33 µM and 3.99 µM in assay [8]; 3.27 µM and 3.37 µM in assay [9]; 6.75 µM and 2.49 µM in assay [10].
In the case of `NC(=S)N/N=C\c1nccc2c(C(F)(F)F)cccc12`, the GI50 in [1] is 0.481 µM; in assay [2], 0.44 µM; in assay [3] it was 0.245 µM; in [4], 0.365 µM; in assay [5], 0.224 µM; in assay [6] it was 0.461 µM. Also, the GI50 in [7] was 0.446 µM; in assay [8] it was 0.286 µM; in [9], 0.29 µM; in [10], 0.312 µM. The TGI in assay [1] was 31.5 µM; in assay [2], 21.2 µM; in assay [3] it was 3.11 µM; in assay [4], 14.8 µM; in assay [5] it was 8.4 µM; in assay [6], 8.34 µM. For the same compound, the TGI in assay [7] is more than 49 µM; in [8], 1.19 µM; in assay [9], 0.94 µM; in assay [10] it was 8.73 µM.
As to `CC[C@@H](c1ccc(O)c(O)c1)[C@@H](CC)c1ccc(O)c(O)c1`, the GI50 in assay [1] was 3.47 µM; in [2], 3.38 µM; in [3], 4.12 µM; in [4] it was 9.57 µM; in assay [5], 15.8 µM; in assay [6], 30.7 µM. Also, the GI50 in [7] is 14.2 µM; in assay [8], 2.66 µM; in assay [9], 14.9 µM; in [10], 2.77 µM. Moreover, the TGI in assay [1] worked out at 15.1 µM; in assay [2] it was 94.5 µM; in [3] it was 21.4 µM; in assay [4], 85.5 µM; in assay [5], 37.8 µM; in assay [6], 77.8 µM. Also, the TGI in [7] is 31.8 µM; in [8], 6.21 µM; in assay [9] it was 38.1 µM; in [10], 9.43 µM.
In the case of `O=C1c2c(F)c(F)c(F)c(F)c2C(=O)N1c1ccc(F)cc1F`, the GI50 is 13.9 µM in assay [1]; 2.58 µM in assay [2]; 10.5 µM in assay [3]; 6.54 µM in [4]; 2.55 µM in assay [5]; 34.4 µM in [6]. For the same compound, the GI50 in assay [7] was 3.82 µM; in [8], 0.403 µM; in assay [9] it was 21.8 µM; in assay [10], 8.44 µM. Further, the TGI in [1] was 38.3 µM; in [2] it was more than 33.9 µM; in [3], more than 48 µM; in assay [4] it was 19.3 µM; in assay [5] it was 7.95 µM; in [6], more than 100 µM. For the same compound, the TGI was found to be 9.82 µM in assay [7], 0.891 µM in [8], 57.2 µM in assay [9] and 25.5 µM in assay [10].
In the case of `CC(C)(C)[Si](C)(C)OC1[C@@H](O[Si](C)(C)C(C)(C)C)[C@@H](CNC(=O)NC(=O)C(F)(F)F)O[C@H]1n1cnc2c(NC(=O)Nc3ccccc3)ncnc21` (some centres not stated), the GI50 in [1] is 5.52 µM; in assay [2], 8.16 µM; in assay [3], 7.68 µM; in assay [4], 8.32 µM; in [5], 7.4 µM; in assay [6] it was 9.37 µM. Besides, the GI50 in assay [7] was 8.77 µM; in assay [8], 9.3 µM; in [9] it was 7.19 µM; in [10], 8.24 µM. Moreover, the TGI in assay [1] was determined as 16.4 µM; in [2], 24.7 µM; in [3] it was 15.6 µM; in assay [4], 17.4 µM; in assay [5], 14.5 µM; in assay [6] it was 17.3 µM. Also, the TGI in [7] amounted to 16.6 µM; in assay [8], 26.4 µM; in assay [9], 15 µM; in [10], 17 µM.
Regarding `O=C1OCC2=C1C(c1cccc(Br)c1)c1cc3c(cc1N2CCO)OCCO3` (configuration not stated), the TGI was 0.0241 µM in assay [1]; more than 27.7 µM in [2]; 36.5 µM in assay [3]; more than 43.8 µM in assay [4]; 6.07 µM in [5]; 1.29 µM in [6]. Moreover, the TGI in assay [7] is more than 44.5 µM; in [8], 0.362 µM; in assay [9] it was 15.3 µM; in assay [10] it was 7.54 µM. Besides, the GI50 in assay [2] was 0.055 µM; in assay [3], 0.127 µM; in [4] it was 0.117 µM; in [5], 0.0596 µM; in assay [6], 0.0426 µM; in assay [7], 0.0911 µM. For the same compound, the GI50 was 0.0452 µM in assay [8], 0.0261 µM in [9] and 0.0522 µM in [10].
For `COC(=O)[C@]12CC[C@@H](C)[C@H](C)[C@@H]1C1=CC[C@@H]3[C@@]4(C)C[C@@H](O)[C@H](O)[C@@](C)(CO)[C@@H]4[C@H](O)C[C@@]3(C)[C@]1(C)CC2`, the GI50 was 13 µM in assay [1]; 12.7 µM in [2]; 6.3 µM in [3]; 12.4 µM in assay [4]; 17.2 µM in assay [5]; 22.6 µM in [6]. Moreover, the GI50 in assay [7] is 16.8 µM; in [8], 9.1 µM; in [9], 16.8 µM; in [10], 13.1 µM. Moreover, the TGI amounted to 27.3 µM in assay [1]; 45.7 µM in [2]; 29.8 µM in [3]; 29.4 µM in [4]; 40.9 µM in assay [5]; 48.3 µM in assay [6]. Moreover, the TGI in assay [7] was determined as 36.6 µM; in assay [8] it was 30.3 µM; in assay [9], 35.8 µM; in assay [10], 27.3 µM.
Turning to `O=C1NC(=NCc2ccccc2)S/C1=C\c1ccc2ncccc2c1`, the GI50 in assay [1], in assay [2], in [3], in [4], in assay [5] and in assay [6] was more than 25 µM in each case. Moreover, the GI50 in [7], in assay [8], in [9] and in assay [10] was more than 25 µM in each case. In addition, the TGI in [1], in assay [2], in [3], in assay [4], in [5] and in [6] was more than 25 µM in each case. Also, the TGI in [7], in [8], in assay [9] and in [10] was more than 25 µM throughout.
Turning to `COc1c2ccccc2c(OC)c2[nH]c(=O)ccc12`, the GI50 in assay [1] is 1.98 µM; in [2], 6.39 µM; in assay [3] it was 8.13 µM; in [4], 5.73 µM; in [5], 4 µM; in [6] it was 4.92 µM. In addition, the GI50 in assay [7] was 0.925 µM; in [8], 12.4 µM; in assay [9], 2.5 µM; in assay [10] it was 16.2 µM. Moreover, the TGI in assay [1] was 4.07 µM; in [2], more than 100 µM; in assay [3] it was 97.3 µM; in assay [4], more than 100 µM; in assay [5] it was more than 69 µM; in assay [6] it was more than 75.8 µM. Besides, the TGI in assay [7] was 3.47 µM; in [8], more than 92.4 µM; in assay [9], 6.39 µM; in assay [10] it was more than 90.6 µM.
For the compound `COc1cc(-c2nc3sccn3c2-c2ccnc(NCCNS(=O)(=O)c3ccc(F)cc3)n2)ccc1F`, the GI50 was 1.11 µM in assay [1]; 1.53 µM in [2]; 1.29 µM in [3]; 1.69 µM in assay [4]; 4.23 µM in [5]; 2.24 µM in assay [6]. Also, the GI50 was 2.96 µM in assay [7], 3.4 µM in [8], 3.88 µM in [9] and 2.53 µM in assay [10]. Further, the TGI was 5.5 µM in assay [1]; more than 100 µM in assay [2]; more than 100 µM in assay [3]; more than 100 µM in assay [4]; more than 100 µM in assay [5]; 7.27 µM in assay [6]. The TGI in [7], in assay [8], in assay [9] and in assay [10] was more than 100 µM in each case.
